Test results reported in patent publication US12263171B2, “7-, 8-, and 10-substituted amino triazolo quinazoline derivatives as adenosine receptor antagonists, pharmaceutical compositions and their use” (Merck Sharp & Dohme LLC, priority 2018, dated 2025).

How the values were obtained:
[1] = biological target: human A2a adenosine receptor (Homo sapiens (Human), UniProt P29274); experiment: A2a receptor affinity radioligand binding assay ([3H] SCH58261, membranes from HEK293 or CHO cells); conditions: unstarred values: radioligand binding
Outline: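 Displacement of tritiated SCH58261 (working dilution 4 nM) from recombinant human A2a receptor membranes (HEK293 or CHO), 60 min at room temperature in Tris pH 7.4/MgCl2 buffer after 15–30 min compound preincubation. Scintillation counting after filtration; normalized percent effect fitted 4-parameter logistic for IC50.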

[2] = biological target: human A2b adenosine receptor (Homo sapiens (Human), UniProt P29275); experiment: A2B antagonism in cAMP cell-based assay (LANCE cAMP, HEK293 cells, 600 nM adenosine); conditions: for IC50: values marked *: cAMP cell-based assay; for *A2B cAMP % inh. @ 10000 nM: marked *
Chain of human A2b adenosine receptor (P29275 whole entry): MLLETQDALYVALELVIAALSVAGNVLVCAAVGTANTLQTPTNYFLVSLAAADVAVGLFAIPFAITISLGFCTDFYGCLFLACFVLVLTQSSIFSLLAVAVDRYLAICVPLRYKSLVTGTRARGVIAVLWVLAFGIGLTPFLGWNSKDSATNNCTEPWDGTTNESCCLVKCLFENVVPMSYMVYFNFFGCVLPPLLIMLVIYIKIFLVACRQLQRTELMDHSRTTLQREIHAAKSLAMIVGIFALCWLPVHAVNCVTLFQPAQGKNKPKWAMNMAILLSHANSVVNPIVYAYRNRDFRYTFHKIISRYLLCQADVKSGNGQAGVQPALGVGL

Chain of human A2a adenosine receptor (P29274 whole entry): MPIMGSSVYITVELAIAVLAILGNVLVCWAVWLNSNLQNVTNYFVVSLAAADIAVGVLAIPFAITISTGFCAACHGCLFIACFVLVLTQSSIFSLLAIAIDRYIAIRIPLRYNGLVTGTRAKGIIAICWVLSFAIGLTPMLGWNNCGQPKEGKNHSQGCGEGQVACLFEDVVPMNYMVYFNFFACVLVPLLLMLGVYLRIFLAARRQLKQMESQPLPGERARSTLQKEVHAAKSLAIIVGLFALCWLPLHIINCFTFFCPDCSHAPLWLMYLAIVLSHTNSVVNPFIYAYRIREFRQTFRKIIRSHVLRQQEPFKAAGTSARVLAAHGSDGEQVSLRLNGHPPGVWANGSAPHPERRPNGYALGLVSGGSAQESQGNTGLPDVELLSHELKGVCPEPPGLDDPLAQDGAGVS

Row | IC50 [1] [nM] | IC50 [2] [nM] | *A2B cAMP % inh. @ 10000 nM [2] [% inh. @ 10000 nM*] | SMILES
1 | 3.5 | 213 | – | COc1cccc2c1nc(N)n1nc([C@@H]3CCCN(c4ccc(C(F)(F)F)nc4)C3)nc21 [Example 112, (R)-7-methoxy-2-(1-(6-(trifluoromethyl)pyridin-3-yl)piperidin-3-yl)-[1,2,4]triazolo[1,5-c]quinazolin-5-amine]
2 | 0.6 | 209 | – | COc1cccc2c1nc(N)n1nc([C@@H]3CCCN(c4cncc(F)c4)C3)nc21 [Example 113, (R)-2-(1-(5-fluoropyridin-3-yl)piperidin-3-yl)-7-methoxy-[1,2,4]triazolo[1,5-c]quinazolin-5-amine]
3 | 1.7 | 370 | – | COc1cccc2c1nc(N)n1nc([C@@H]3CCCN(c4cccc(C(F)(F)F)c4)C3)nc21 [Example 114, (R)-7-methoxy-2-(1-(3-(trifluoromethyl)phenyl)piperidin-3-yl)-[1,2,4]triazolo[1,5-c]quinazolin-5-amine]
4 | 1.2 | 18.1 | – | COc1cccc2c1nc(N)n1nc([C@@H]3CCCN(c4ccccn4)C3)nc21 [Example 119]
5 | 3.1 | 321 | – | COc1cccc2c1nc(N)n1nc([C@@H]3CCCN(c4cnn(CC(C)(C)N)c4)C3)nc21 [Example 120, (R)-2-(1-(1-(2-amino-2-methylpropyl)-1H-pyrazol-4-yl)piperidin-3-yl)-7-methoxy-[1,2,4]triazolo[1,5-c]quinazolin-5-amine]
6 | 0.8 | 13.1 | – | COc1cccc2c1nc(N)n1nc([C@@H]3CCCN(c4cnn(CS(C)(=O)=O)c4)C3)nc21 [Example 123, (R)-7-methoxy-2-(1-(1-((methylsulfonyl)methyl)-1H-pyrazol-4-yl)piperidin-3-yl)-[1,2,4]triazolo[1,5-c]quinazolin-5-amine]
7 | 7.7 | 1280 | – | Nc1nc2c(OC(F)F)cccc2c2nc([C@@H]3CCCN(c4cnn(C5CC5)c4)C3)nn12 [Example 125, (R)-2-(1-(1-cyclopropyl-1H-pyrazol-4-yl)piperidin-3-yl)-7-(difluoromethoxy)-[1,2,4]triazolo[1,5-c]quinazolin-5-amine]
8 | 13.2 | 2510 | – | Cn1cc(N2CCC[C@@H](c3nc4c5cccc(OC(F)F)c5nc(N)n4n3)C2)cn1 [Example 126, (R)-7-(difluoromethoxy)-2-(1-(1-methyl-1H-pyrazol-4-yl)piperidin-3-yl)-[1,2,4]triazolo[1,5-c]quinazolin-5-amine]
9 | 56.8 | 1650 | – | COc1cccc2c1nc(N)n1nc(C34CC(C3)N(c3cnn(C)c3)C4)nc21 [Example 127, 7-methoxy-2-(2-(1-methyl-1H-pyrazol-4-yl)-2-azabicyclo[2.1.1]hexan-4-yl)-[1,2,4]triazolo[1,5-e]quinazolin-5-amine]
10 | 5280 | – | 30 | COc1cccc2c1nc(N)n1nc(C3CCCN(c4cnn(C5CC5)c4)C3C)nc21 (stereo not shown) [Example 129]
11 | 10.8 | 404 | – | COc1cccc2c1nc(N)n1nc([C@@H]3CCC[C@@H](c4cnn(C)c4)C3)nc21 [Example 136B, 7-methoxy-2-((1R,3R)-3-(1-methyl-1H-pyrazol-4-yl)cyclohexyl)-[1,2,4]triazolo[1,5-c]quinazolin-5-amine]
12 | 5 | 3010 | – | CCn1cc(N2C[C@H](c3nc4c5cccc(OC)c5nc(N)n4n3)CC[C@@H]2C)cn1 [Example 140D]
13 | 3.1 | 333 | – | COc1cccc2c1nc(N)n1nc([C@H]3CC[C@H](C)N(c4cnn(CC5(O)CCC5)c4)C3)nc21 [Example 144B]
14 | 0.2 | 5.6 | – | COc1cccc2c1nc(N)n1nc([C@@H]3CC[C@H](C)N(c4cnn(C(C)C(C)(C)O)c4)C3)nc21 (stereo partly drawn) [Example 147D, 3-(4-((2S,5R)-5-(5-amino-7-methoxy-[1,2,4]triazolo[1,5-c]quinazolin-2-yl)-2-methylpiperidin-1-yl)-1H-pyrazol-1-yl)-2-methylbutan-2-ol]
15 | 1 | 234 | – | COc1cccc2c1nc(N)n1nc([C@H]3C[C@@H](F)CN(c4cnn(C5CC5)c4)C3)nc21 [Example 148A]
16 | 27.8 | – | 36 | COc1cccc2c1nc(N)n1nc([C@@H]3C[C@@H](F)CN(c4cnn(C5CC5)c4)C3)nc21 [Example 148B]
17 | 1 | 677 | – | CCn1cc(N2C[C@H](c3nc4c5cccc(OC)c5nc(N)n4n3)CC(F)(F)C2)cn1 [Example 153B]
18 | 19 | 395 | – | CCn1cc(N2CC[C@@H](c3nc4c5cccc(OC)c5nc(N)n4n3)C2)cn1 [Example 160, (R)-2-(1-(1-ethyl-1H-pyrazol-4-yl)pyrrolidin-3-yl)-7-methoxy-[1,2,4]triazolo[1,5-c]quinazolin-5-amine]
19 | 13.2 | 231 | – | COc1cccc2c1nc(N)n1nc([C@@H]3CCN(c4cnn(C5CC5)c4)C3)nc21 [Example 161, (R)-2-(1-(1-cyclopropyl-1H-pyrazol-4-yl)pyrrolidin-3-yl)-7-methoxy-[1,2,4]triazolo[1,5-c]quinazolin-5-amine]
20 | 14 | 42.1 | – | COc1cccc2c1nc(N)n1nc([C@@H]3CCN(c4cnn(C(C)(C)C)c4)C3)nc21 [Example 163, (R)-2-(1-(1-(tert-butyl)-1H-pyrazol-4-yl)pyrrolidin-3-yl)-7-methoxy-[1,2,4]triazolo[1,5-c]quinazolin-5-amine]
21 | 8.9 | 29.5 | – | COc1cccc2c1nc(N)n1nc([C@@H]3CCN(c4cnn(CC(F)(F)F)c4)C3)nc21 [Example 164, (R)-7-methoxy-2-(1-(1-(2,2,2-trifluoroethyl)-1H-pyrazol-4-yl)pyrrolidin-3-yl)-[1,2,4]triazolo[1,5-c]quinazolin-5-amine]
22 | 4.7 | 132 | – | COc1ccc2c(c1)nc(N)n1nc([C@@H]3CCCN(c4cnn(C)c4)C3)nc21 [Example 177, (R)-8-methoxy-2-(1-(1-methyl-1H-pyrazol-4-yl)piperidin-3-yl)-[1,2,4]triazolo[1,5-c]quinazolin-5-amine]
23 | 4 | 141 | – | COc1ccc2c(c1)nc(N)n1nc([C@@H]3CCCN(c4cnn(C5CC5)c4)C3)nc21 [Example 184, (R)-2-(1-(1-cyclopropyl-1H-pyrazol-4-yl)piperidin-3-yl)-8-methoxy-[1,2,4]triazolo[1,5-c]quinazolin-5-amine]
24 | 0.4 | 27.6 | – | COc1ccc2c(c1)nc(N)n1nc([C@@H]3CC[C@H](C)N(c4cn(CC(C)(C)O)nc4C)C3)nc21 [Example 213, 1-(4-((2S,5R)-5-(5-amino-8-methoxy-[1,2,4]triazolo[1,5-c]quinazolin-2-yl)-2-methylpiperidin-1-yl)-3-methyl-1H-pyrazol-1-yl)-2-methylpropan-2-ol]
25 | 0.2 | 2.8 | – | COc1ccc2c(c1)nc(N)n1nc([C@@H]3CC[C@H](C)N(c4cnn(C(C)(C)CO)c4)C3)nc21 [Example 214, 2-(4-((2S,5R)-5-(5-amino-8-methoxy-[1,2,4]triazolo[1,5-c]quinazolin-2-yl)-2-methylpiperidin-1-yl)-1H-pyrazol-1-yl)-2-methylpropan-1-ol]
26 | 0.5 | 6.3 | – | CC[C@@H]1CC[C@@H](c2nc3c4ccc(OC)cc4nc(N)n3n2)CN1c1cnn(C(C)(C)CO)c1 [Example 215B]
